Data set [1] has as its system UWB1.289 + BRCA1 human ovarian cancer cell line. Briefly: MTT cytostatic-cytotoxic activity, UWB1.289+BRCA1. In kind it is cell-based. To be noted: UWB1.289+BRCA1, 48 h treatment. On the procedure: Human ovarian adenocarcinoma cells, derived from UBWB1,289, in which the presence of the BRCA1 gene has been restored. […] They are not susceptible to ionizing radiation and radioimmune chemical agents (e.g., alkylating agents). Also, UWB1.289 cells have mutated the p53 tumor suppressor gene, and are positive for the expression of cytokeratin 7 (CK-7), calretinin and Wilms' tumor protein (WT).
(§1) All cancer cell lines are stored in a liquid nitrogen tank in 2.5 ml cryovials (Corning-Costar, Cambridge, Mass.). DMSO (dimethylsulfoxide) act as a cryoprotectant and is added to prevent the formation of ice crystals which may lyse the cells. The Cells were grown as monolayer cultures in T-75 flasks (Corning-Costar, Cambridge, Mass.) and maintained at 37° C. in 5% CO2 incubator & 100% relative humidity. The cultures medium used are McCoy's 5a Medium, supplemented with 10% fetal bovine serum (FBS, Gibco) and 1% antibiotics (100 IU/ml penicillin/100 µg/ml streptomycin), sterilized by filtration (Corning-Costar filter, diameter 0.2 μm, RPMI-1640 and 50% RPMI-1640 (Catalog No 30-2001) plus 50% Mammary Epithelial Growth Medium (MEGM), supplemented with 10% fetal bovine serum (FBS, Gibco) and 1% antibiotics (100 IU/ml penicillin/100 μg/ml streptomycin). The passage is performed every 3-4 to days as follows: Cells are washed with sterile PBS (Phosphate buffered saline): 8 g/l NaCl, 0,2 g/l KCl, 1,15 g/l Na2HPO4καl 0,2 g/l KH2PO4. pH:7,4), add 2-3 ml 0.05% trypsin (Gibco 1:250) and 0.02% EDTA to cover the monolayer and incubate the flask at 3TC for 5-10 minutes. Trypsin-EDTA, is used mainly to detach the cells from the flask and prepare a single cell suspension. Finally, the number of cells can be determined by direct counting using a Neubauer chamber and cell viability is determined by staining the cells with trypan blue.
(§2) In the experimental study the in vitro effect of the compound type (I) was evaluated against ovarian cancer cell lines UWB1.289, UWB1.289+BRCA1 Kai SKOV-3.The cells were plated in 96-well plate (MTP) at a density of 1×10^4cells/m1 per well and maintained for 72 h at 3TC in a 5% CO2 incubator and grown as monolayers. The selection of the initial number of cells was made according to the rate of proliferation of the cell line, in order the cells throughout the experiment are in an exponential (log) growth phase. After 24 hours, cells were treated with 1-100 μmol/l of the tested compounds for 48 h. Experiments were carried out using triplicate wells. The viability of cultured cells was estimated by an (3-(4,5-imethylthiazol-2-yl)-2,5-diphenyltetrazolium bromide (MTT) metabolic assay as described previously (Finlay G J, Wilson W R and Baguley B C: Comparison of in vitro activity of cytotoxic drugs towards human carcinoma and leukaemia cell lines. Eur J Cancer Clin Oncol 22: 655-662, 1986; Alley M C, Scudiero D A, Monks A, Hursey M L, Czerwinski M J, Fine D L, et al. Feasibility of drug screening with panels of human tumor cell lines using a microculture tetrazolium assay. Cancer Res 1988; 48:589-601). MTT (Sigma, St Louis, Mo., USA) was dissolved in PBS in a concentration of 5 mg/ml, filter sterilized, and stored at 4° C. MTT (50 μl of stock solution) was added to each culture and incubated for 3 h at 3TC to allow metabolization. Formazan crystals were solubilized by DMSO (100 μl). Absorbance of the converted dye was measured at a wavelength of 540nm on ELISA reader (BioTek, Winooski, Vt., USA).
(§3) GI50: The mean concentration that causes 50% inhibition of cell growth (Growth Inhibition 50%). The calculation of the value is based on the formula: (Tt72x)−(Ct24)/(Ct72)-(Ct24)×100=50
(§4) TGI: The mean concentration that causes 100% inhibition of cell growth (Total Growth Inhibition). The value is calculated according to the formula: (Tt72x)−(Ct24)/(Ct72)−(Ct24)×100=0
(§5) IC50: The mean concentration that kills 50% of the cells (Inhibition Concentration 50%). The value is calculated according to the formula: (Tt72x)−(Ct24)/(Ct24)×100=[…]

The subject of data set [2] is MOLT-4 human acute T-leukemia cell line. Briefly: MTT cytostatic-cytotoxic activity, MOLT-4. In kind it is cell-based. The note with it: MOLT-4, 48 h treatment.
Data set [3] relates to UWB1.289 human ovarian cancer cell line (mutant BRCA1). Briefly: MTT cytostatic-cytotoxic activity, UWB1.289. In kind it is cell-based. To be noted: UWB1.289, 48 h treatment. On the procedure:
Also, UWB1.289 cells have mutated the p53 tumor suppressor gene and positive Wilms' tumor protein (WT) expression, have no functional BRCA1 gene and are positive for the expression of cytokeratin 7 (CK-7), calretinin and Wilms' tumor protein (WT). Finally they are sensitive to ionizing radiation.
as §1, §2, §3, §4, §5

Data set [4] relates to OVCAR-3 human ovarian cancer cell line. Briefly: MTT cytostatic-cytotoxic activity, OVCAR-3. The class given is cell-based. To be noted: OVCAR-3, 48 h treatment. On the procedure:
(§6) SKOV-3 (SKOV-3) (ATCC HTB 77) and OVCAR-3 (ATCC® HTB-161™)
(§7) Human ovarian adenocarcinoma cells, which are grown easily in monolayer culture with epithelial-like morphology. SKOV-3 are resistant to tumor necrosis factor (TNF) and to other cytotoxic drugs such as cisplatin, and adriamycin, while OVCAR-3 are resistant to adriamycin, cisplatin and melphalan. These cell lines express androgens, estrogens and progesterone receptors. When SKOV-3 or OVCAR-3 cells are subcutaneously implanted in nude mice, SCID mice, a moderately differentiated tumor develops, and the resulting model resembles primary ovarian adenocarcinoma in humans.
as §1, §2, §3
(§8) TGI: The mean concentration that causes 100% inhibition of cell growth (Total Growth Inhibition). […]

Data set [5] deals with SKOV-3 human ovarian cancer cell line. Briefly: MTT cytostatic-cytotoxic activity, SKOV-3. In kind it is cell-based. The note with it: SKOV-3, 48 h treatment. The procedure:
as §6, §7, §1, §2, §3, §8

For data set [6], the system named is PC-3 human hormone-resistant prostate cancer cell line. Briefly: MTT cytostatic-cytotoxic activity, PC-3. In kind it is cell-based. To be noted: PC-3, 48 h treatment.
Data set [7] relates to A-549 human lung carcinoma cell line. Briefly: MTT cytostatic-cytotoxic activity, A-549. The class given is cell-based. The note with it: A-549, 48 h treatment.
Data set [8] has as its system MCF-7 human breast cancer cell line. Briefly: MTT cytostatic-cytotoxic activity, MCF-7. The class given is cell-based. To be noted: MCF-7, 48 h treatment.
The subject of data set [9] is T-47D human breast cancer cell line. Briefly: MTT cytostatic-cytotoxic activity, T-47D. In kind it is cell-based. To be noted: 48 h treatment.
A short description of another data set: in vivo. The note with it: both sexes, mouse, in vivo, ip; C57BI/6 mice, acute toxicity. On the procedure:
The acute toxicity of the compounds was assessed from lethality by testing different concentrations, starting at 100mg/kg. […] For intraperitoneal (i.p.) treatment, stock solutions of the tested compounds were prepared immediately before use. They were suspended in corn oil in the desired concentration following initial dissolution in 10% dimethylsulfoxide (DMSO). C57BI/6 male and female were used for toxicity studies. Mice were kept under conditions of constant temperature and humidity in sterile cages with water and food.

The subject of data set [10] is all 9 human cancer cell lines. Briefly: MTT cytostatic-cytotoxic activity, all 9 human cancer cell lines. In kind it is cell-based. The note with it: for IC50: Homo sapiens, read-out: (cytotoxic); for GI50: in all 9 human cancer cell lines, read-out: IG50 (cytostatic).

Take `COc1cc(Cc2nnc3sc(/C=C/c4cccc(F)c4)nn23)c(S(=O)(=O)N(C)C)cc1OC` [TS29, 3-[2-(N,N-dimethylsulfamoyl)-4,5dimethoxybenzyl]-6-(E)-3-fluorostyryl-1,2,4-triazolo[3,4-b]-1,3,4-thiazole]: the GI50 in [1] worked out at 10 µM; in data set [2], 61 µM; in data set [3], 10 µM; in [4] it was 74 µM; in data set [5], 45 µM; in data set [6], 85 µM. Moreover, the GI50 in [7] came to 30 µM; in data set [8] it was 66 µM; in [9], 48 µM. Also, the TGI (in general, the concentration at which net growth stops) in data set [1] is 64 µM; in data set [2], more than 100 µM; in data set [3] it was 67 µM; in [4], more than 100 µM; in data set [5], 84 µM; in data set [6], more than 100 µM. Moreover, the concentration for total growth inhibition (TGI) in data set [7] was 71 µM; in data set [8], more than 100 µM; in data set [9] it was 86 µM. Further, the IC50 in data set [1] (kills 50% of the cells), in data set [2] (kills 50% of the cells), in [3] (kills 50% of the cells), in data set [4] (kills 50% of the cells), in data set [5] (kills 50% of the cells) and in [6] (kills 50% of the cells) was more than 100 µM in each case. Moreover, the IC50 in data set [7] (kills 50% of the cells), in [8] (kills 50% of the cells) and in data set [9] (kills 50% of the cells) was more than 100 µM each time.
`COc1ccc(Cc2nn3c(Cc4cc(OC)c(OC)cc4S(=O)(=O)N(C)C)nnc3s2)cc1OC` [TS51, 3-[2-(N,N-dimethylsulfamoyl)-4,5-dimethoxybenzyl]-6-(3,4-dimethoxybenzyl)-1,2,4-triazolo[3,4-b]-1,3,4-thiazole]: the median lethal dose (LD50) – broadly, the dose expected to kill half of the subjects tested – in “in vivo” was more than 500 mg/kg. Besides, in data set [10], the IC50 was more than 100 µM and the GI50 is less than 100 µM.
As for `COc1cc(Cc2nnc3sc(CCCc4ccccc4)nn23)c(S(=O)(=O)N(C)C)cc1OC` [TS52, 3-[2-(N,N-dimethylsulfamoyl)-4,5-dimethoxybenzyl]-6-(3-phenylpropyl)-1,2,4-triazolo[3,4-b]-1,3,4-thiazole], the median lethal dose (LD50) in the data set “in vivo” is more than 500 mg/kg. Further, in [10], the IC50 is more than 100 µM and the GI50 was less than 100 µM.
Regarding `COc1ccccc1CCc1nn2c(Cc3cc(OC)c(OC)cc3S(=O)(=O)N(C)C)nnc2s1` [TS54, 3-[2-(N,N-dimethylsulfamoyl)-4,5-dimethoxybenzyl]-6-[2-(2-methoxyphenyl)ethyl]-1,2,4-triazolo[3,4-b]-1,3,4-thiazole], the median lethal dose (LD50) in “in vivo” is more than 500 mg/kg. Also, in data set [10], the IC50 is more than 100 µM and the GI50 was less than 100 µM.
For `COc1ccc(CCc2nn3c(Cc4cc(OC)c(OC)cc4S(=O)(=O)N(C)C)nnc3s2)cc1` [TS55, 3-[2-(N,N-dimethylsulfamoyl)-4,5-dimethoxybenzyl]-6-[2-(4-methoxyphenyl)ethyl]-1,2,4-triazolo[3,4-b]-1,3,4-thiazole] the same measures were more than 500 mg/kg, more than 100 µM and less than 100 µM.
In the same order, the values of `COc1cc(Cc2nnc3sc(COc4ccccc4)nn23)c(S(=O)(=O)N(C)C)cc1OC` [TS56, 3-[2-(N,N-dimethylsulfamoyl)-4,5-dimethoxybenzyl]-6-phenoxymethyl-1,2,4-triazolo[3,4-b]-1,3,4-thiazole] are more than 500 mg/kg, more than 100 µM and less than 100 µM.
For the compound `COc1cccc(Cc2nn3c(Cc4cc(OC)c(OC)cc4S(=O)(=O)N(C)C)nnc3s2)c1` [TS58, 3-[2-(N,N-dimethylsulfamoyl)-4,5-dimethoxybenzyl]-6-(3-methoxybenzyl)-1,2,4-triazolo[3,4-b]-1,3,4-thiazole], the LD50 in the data set “in vivo” is more than 500 mg/kg. Further, in [10], the IC50 is more than 100 µM and the GI50 was less than 100 µM.
Consider `COc1cc(Cc2nnc3sc(-c4cc(OC)c(OC)c(OC)c4)nn23)c(S(=O)(=O)N(C)C)cc1OC` [TS59, 3-[2-(N,N-dimethylsulfamoyl)-4,5-dimethoxybenzyl]-6-(3,4,5-trimethoxyphenyl)-1,2,4-triazolo[3,4-b]-1,3,4-thiazole], for which the LD50 in the data set “in vivo” is more than 500 mg/kg. Further, in data set [10], the IC50 was more than 100 µM and the GI50 is less than 100 µM.
For `COc1cc(Cc2nnc3sc(-c4ccc([N+](=O)[O-])cc4Cl)nn23)c(S(=O)(=O)N(C)C)cc1OC` [TS61, 3-[2-(N,N-dimethylsulfamoyl)-4,5-dimethoxybenzyl]-6-(2-chloro-4-nitrophenyl)-1,2,4-triazolo[3,4-b]-1,3,4-thiazole], the 50% lethal dose (LD50) in the data set “in vivo” is more than 500 mg/kg. For the same compound, in data set [10], the IC50 was more than 100 µM and the GI50 was less than 100 µM.
The compound `COc1cc(Cc2nnc3sc(-c4cccc(N)c4)nn23)c(S(=O)(=O)N(C)C)cc1OC` [TS70, 3-[2-(N,N-dimethylsulfamoyl)-4,5-dimethoxybenzyl]-6-(3-aminophenyl)-1,2,4-triazolo[3,4-b]-1,3,4-thiazole] registered an LD50 in “in vivo” of more than 500 mg/kg. In addition, in data set [10], the IC50 was more than 100 µM and the GI50 was less than 100 µM.

(Values after US10513529B2, “1,2,4-triazolo-[3,4-b]-1,3,4-thiadiazole derivatives” (GALENICA S.A., priority 2016, dated 2019).)
